Reference: patent publication US6555582B1, “Eye treatments using synthetic thyroid hormone compositions” (The Regents of the University of California, priority 1996, dated 2003)
Read-outs that look alike come from different tables or passages of the source.

How the values were obtained:
[1] = tested on: HTM cells; settings: for reduction in HA secretion: T3-supplemented vs T3-stripped media (No Tx)
[2] = tested on: CD44E; settings: HTM cells exposed to supplemental T3 for 18 hours
Procedure: (§1) To investigate whether CD44 receptors are expressed by HTM cells, four CD44 isoforms can be measured using RT-PCR analysis with probes for CD44s, CD44E, CD44-v1 and CD44-v3. […] RNA was made using RNA TrackTM (Biotecx, Friendswood, Tex.). The RNA was used as a template for the first strand synthesis of cDNA in a reaction mixture containing 1000 U Moloney Murine Leukemia Virus Reverse Transcriptase (BRL, Gaithersburg, Md.), 50 mM random hexamer primer, 50 mM Tris-HCl (pH 8.3), 75 mM KCl, 10 mM dithiothreitol, 3 mM MgC12, 0.5 mM each of dGTP, dATP, dTTP and dCTP in 60 ul total volume. The cDNA reactions were carried out at 37° C. for 90 min, and then diluted 1:3 or 1:7 in water, pretreated with DEPC. Oligonucleotide primers were diluted to 40 μM in water.
(§2) For RT-PCR, a modified hot start method was used. A quantity of 3-5 μl of cDNA was added to 30 μl of a master mix containing 0.8 μl of each primer, 17 mM Tris-HCI (pH 8.3) and 80 mM KCI. Water was added to the cDNA reactions to a final volume of 40 μl. All reactions were overlaid with light mineral oil and heated to 99° C. After 10 min the reactions were cooled to 94° C. and a 10 μl volume containing 7 mM MgCI2, 1 mM each of dATP, dTTP, dGTP and dCTP, and 1.2 U Taq Polymerase (Perkin-Elmer Cetus, Branchburg, N.J.) was added directly through the oil overlay. […]

[3] = tested on: HTM cells; settings: 10^−7 M, non-confluent cultures, serum-free, day 10, vs controls lacking T3
[4] = tested on: CD44-v 3; settings: HTM cells exposed to supplemental T3 for 18 hours
Procedure: as §1, §2

[5] = tested on: HTM cells; settings: 10^−7M
Procedure: The assay system visualizes the cell's extracellular matrix by taking advantage of its ability to exclude added formalized red blood cells from an area around the cell. Proteoglycan monomer and HA are added to the cells in excess as pericellular matrix assembly is observed by microscopy.
HTM cells were plated on 35-mm dishes at a density of 1×10^4 cells per plate. […] For exogenous matrix assembly, cells were then incubated for 3 hours at 37° C. with 3.0 mg/ml of aggregating proteoglycan monomer (purified from rat chondrosarcoma tumor (Ref. 1)) and 15 μg/ml of hyaluronan (grade 1, Sigma Chemical Co., St. Louis, Mo.). The medium was removed and 0.75 ml of a suspension of formaldehyde fixed red blood cells (1×10^8 cells/ml) in phosphate buffered saline with 0.1% bovine serum albumin was added to each well of cells. After 10 minutes the cells and extracellular matrices (ECMs) were observed visualized by phase contrast microscopy (REF 2, 3). The cell matrices were categorized into one of three groups. Cells having no coats have no visible ECM. Cells having small coats have a visible ECM that extends less than the width of the cell's nucleus out from the cell's plasma membrane. Cells having large coats have a visible ECM that extends greater than the width of the cell's nucleus out from the cell's plasma membrane.

[6] = tested on: Normal pigmented Dutch rabbits

With 3,3′-5-triiodo-L-thyronine [T3] the “fold reduction in secreted HA concentration” value ([1]; 10^−7 M, confluent cells, day 5, vs control cultures) was 2.95 fold, the “reduction in HA secretion” value ([1]; day 2, FIG. 1) was 57% and the “reduction in HA secretion” value ([1]; day 4, FIG. 1) was 66%. The “T3 concentration of maximal inhibition of HA production” value ([1]; cultured HTM cells, FIG. 2) was 10^−7-10^−6 M, the “reduction of HA concentration in the media, non-confluent vs confluent treated cells” value ([1]; non-confluent (less than 75% confluent) cells) was “even greater reduction” and the EC50 ([1]; read-out: half maximal concentration for reduction of HA concentration, confluent cells, dose response curve FIG. 2) was ~5 nM. The “expression of CD44E isoform” value [2] was “dramatic reduction”, the “fold increase in secreted hyaluronidase activity” value [3] was 1.9 fold and the “expression of CD44-v 3 isoform” value [4] was “dramatic reduction”. The “fold greater number of cells with no coats than cells grown in the absence of T3” value ([5]; 2 days) was ~2 fold, the “fold greater number of cells with no coats than cells grown in the absence of T3” value ([5]; 4 days) was “more than 4 fold” and the “decrease in IOP within three weeks of administration” value ([6]; five rabbits) was “at least some detectable decrease in IOP”. For the same substance, the “largest decrease in IOP after three weeks of T3 administration” value ([6]; one rabbit) was 25%.
